Test results taken from patent publication US20230017045A1, “PYRIDINE AND PYRIMIDINE CARBOXYLATE HERBICIDES AND METHODS OF USE THEREOF” (Dow AgroSciences LLC, priority 2017, published 2023).
Where two headings read alike, the source gives them in different places.

System: test plant species
Assay: Post-emergent herbicidal activity test (greenhouse, foliar spray, visual growth reduction)
Type: in vivo
Conditions: post-emergence, 336 h, 140 g ai/ha
Method in brief: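 Greenhouse plants at first–second true leaf stage sprayed overhead at 187 L/ha with compound in acetone/water/isopropanol/DMSO/crop oil/X-77 carrier; controls received solvent blank. Injury rated visually after 14 d on a 0–100% scale versus untreated and control plants, converted to growth reduction.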

[1] = ECHCG: barnyardgrass (Echinochloa crus-galli), 14 days after application, read-out: Visual Growth Reduction (%) 14 Days After Application, ECHCG
[2] = IPOHE: ivy-leaf morning glory (Ipomoea hederacea), 14 days after application, read-out: Visual Growth Reduction (%) 14 Days After Application, IPOHE
[3] = KCHSC: kochia (Bassia scoparia), 14 days after application, read-out: Visual Growth Reduction (%) 14 Days After Application, KCHSC
[4] = ORYSA: rice (Oryza sativa), 14 days after application, read-out: Visual Growth Reduction (%) 14 Days After Application, ORYSA
[5] = SETFA: giant foxtail (Setaria faberi), 14 days after application, read-out: Visual Growth Reduction (%) 14 Days After Application, SETFA
[6] = SORVU: grain sorghum (Sorghum vulgare), 14 days after application, read-out: Visual Growth Reduction (%) 14 Days After Application, SORVU
[7] = STEME: common chickweed (Stellaria media), 14 days after application, read-out: Visual Growth Reduction (%) 14 Days After Application, STEME
[8] = TRZAS: wheat, spring (Triticum aestivum), 14 days after application, read-out: Visual Growth Reduction (%) 14 Days After Application, TRZAS
[9] = blackgrass (Alopecurus myosuroides), 14 Days After Application, read-out: Visual Growth Reduction (%) ALOMY
[10] = crabgrass (Digitaria sanguinalis), 14 Days After Application, read-out: Visual Growth Reduction (%) DIGSA
[11] = lambsquarters (Chenopodium album), 14 Days After Application, read-out: Visual Growth Reduction (%) CHEAL
[12] = redroot pigweed (Amaranthus retroflexus), 14 Days After Application, read-out: Visual Growth Reduction (%) AMARE
[13] = wild oat (Avena fatua), 14 Days After Application, read-out: Visual Growth Reduction (%) AVEFA
[14] = yellow nutsedge (Cyperus esculentus), 14 Days After Application, read-out: Visual Growth Reduction (%) CYPES
[15] = ALOMY: blackgrass (Alopecurus myosuroides), 14 days after application, read-out: Visual Growth Reduction (%) 14 Days After Application, ALOMY
[16] = AMARE: redroot pigweed (Amaranthus retroflexus), 14 days after application, read-out: Visual Growth Reduction (%) 14 Days After Application, AMARE
[17] = AVEFA: wild oat (Avena fatua), 14 days after application, read-out: Visual Growth Reduction (%) 14 Days After Application, AVEFA
[18] = CHEAL: lambsquarters (Chenopodium album), 14 days after application, read-out: Visual Growth Reduction (%) 14 Days After Application, CHEAL
[19] = CIRAR: canada thistle (Cirsium arvense), 14 days after application, read-out: Visual Growth Reduction (%) 14 Days After Application, CIRAR
[20] = CYPES: yellow nutsedge (Cyperus esculentus), 14 days after application, read-out: Visual Growth Reduction (%) 14 Days After Application, CYPES
[21] = DIGSA: crabgrass (Digitaria sanguinalis), 14 days after application, read-out: Visual Growth Reduction (%) 14 Days After Application, DIGSA
[22] = canada thistle (Cirsium arvense), 14 Days After Application, read-out: Visual Growth Reduction (%) CIRAR

Measured: pest or weed control at 140 g/ha

CSc1cc(-c2nc(C(=O)O)c(Cl)cc2F)c(Cl)cc1C(F)(F)F [F342, 3-Chloro-6-(2-chloro-5-(methylthio)-4-(trifluoromethyl)phenyl)-5-fluoropicolinic acid]
0 to 29%: [1] | [4] | [7] | [9] | [10] | [12] | [13] | [14]
30 to 44%: [5] | [6] | [8]
60 to 74%: [11]
85 to 94%: [2] | [3]

COC(=O)c1nc(-c2cc3c(cc2F)OC(F)(F)O3)c(Cl)cc1Cl [F174, Methyl 3,5-dichloro-6-(2,2,6-trifluorobenzo[d] [1,3]dioxol-5-yl)picolinate]
30 to 44%: [5]
95 to 100%: [2]
85 to 94%: [16] | [18] | [21] | [6]
0 to 29%: [15] | [17] | [19] | [20] | [1] | [3] | [4] | [7] | [8]

CCC(F)c1c(Cl)ccc(-c2ccc(Cl)c(C(=O)OC)n2)c1F (centres unmarked) [F285, Methyl 3-chloro-6-(4-chloro-2-fluoro-3-(1-fluoropropyl)phenyl) picolinate]
0 to 29%: [1] | [2] | [3] | [4] | [5] | [6] | [7] | [8] | [9] | [10] | [11] | [12] | [13] | [14]
30 to 44%: [22]

COC(=O)c1nc(-c2cc(F)c(C(F)(F)F)cc2OC)c(F)cc1Cl [F359, Methyl 3-chloro-5-fluoro-6-(5-fluoro-2-methoxy-4-(trifluoromethyl)phenyl)picolinate]
85 to 94%: [3] | [6]
30 to 44%: [9] | [10]
75 to 84%: [22] | [13]
0 to 29%: [4] | [7] | [14]
60 to 74%: [8]
95 to 100%: [1] | [2] | [5] | [11] | [12]

O=C(O)c1nc(-c2ccc(C(F)(F)F)nc2)c(Cl)cc1Cl [F84, 3,5-dichloro-6′-(trifluoromethyl)-[2,3′-bipyridine]-6-carboxylic acid]
30 to 44%: [21]
45 to 59%: [18]
0 to 29%: [15] | [16] | [17] | [19] | [20] | [1] | [2] | [3] | [4] | [5] | [6] | [7] | [8]
